The record followed here is patent publication US20090221642A1, “MUSCARINIC RECEPTOR AGONISTS, COMPOSITIONS, METHODS OF TREATMENT THEREOF, AND PROCESSES FOR PREPARATION THEREOF-176” (AstraZeneca AB, priority 2008, published 2009).

Test [1] addresses T1, hM5 (human Muscarinic receptor subtype 5) (Homo sapiens, UniProt P08912).
T1 construct: expressed in transfected cells; host or cells: CHO cells (Chinese hamster ovary cells, ATCC)
T1 sequence (P08912 1-532): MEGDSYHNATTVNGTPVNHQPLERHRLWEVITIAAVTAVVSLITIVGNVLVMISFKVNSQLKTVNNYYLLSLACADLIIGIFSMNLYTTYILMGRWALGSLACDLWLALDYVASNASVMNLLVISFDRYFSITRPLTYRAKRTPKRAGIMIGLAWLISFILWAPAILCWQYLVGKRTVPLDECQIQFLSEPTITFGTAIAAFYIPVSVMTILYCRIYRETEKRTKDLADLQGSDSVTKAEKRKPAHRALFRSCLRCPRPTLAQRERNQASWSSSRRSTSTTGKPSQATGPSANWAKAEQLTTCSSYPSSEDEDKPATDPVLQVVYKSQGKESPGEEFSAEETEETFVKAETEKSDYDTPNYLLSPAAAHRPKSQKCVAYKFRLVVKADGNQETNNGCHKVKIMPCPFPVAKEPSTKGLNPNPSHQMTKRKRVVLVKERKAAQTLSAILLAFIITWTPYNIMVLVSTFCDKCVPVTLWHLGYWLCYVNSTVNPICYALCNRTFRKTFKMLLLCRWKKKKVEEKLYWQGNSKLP
In words: Human M5 calcium mobilization FLIPR assay. The class given is cell-based. The note with it: hM5 expressed in CHO cells, intracellular Ca2+ release. The protocol:
(§1) Human M1, rat M1, human M3 and human M5 Calcium Mobilization FLIPR™ Assay
(§2) The compound activity in the present invention (EC50 or IC50) is measured using a 384 plate-based imaging assay that monitors drug induced intracellular Ca^2+ release in whole cells. Activation of hM1 (human Muscarinic receptor subtype 1, gene bank access NM_000738), rM1 (rat Muscarinic receptor subtype 1, gene bank access NM_080773), hM3 (human Muscarinic receptor subtype 3, gene bank access NM_000740NM_000740) and hM5 (human Muscarinic receptor subtype 5, gene bank access NM_0121258), receptors expressed in CHO cells (Chinese hamster ovary cells, ATCC) is quantified in a Molecular Devices FLIPR II™ instrument as an increase in fluorescent signal. Inhibition of hM3 and hM5 by compounds is determined by the decrease in fluorescent signal in response to 2 nM acetylcholine activation.
(§3) Prior to experiment, the cell culture medium is removed from the plates by inversion. […] Plates are incubated at 37° C. for 60 minutes prior to start the experiment. The incubation is terminated by washing the cells four times in assay buffer, leaving a residual 25 μl buffer per well. Cell plates are then transferred to the FLIPR, ready for compound additions.
(§4) The day of experiment, acetylcholine and compounds are diluted in assay buffer in three-fold concentration range (10 points serial dilution) for addition by FLIPR instrument. For all calcium assays, a baseline reading is taken for 10 seconds followed by the addition of 12.5 μl of compounds, resulting in a total well volume of 37.5 μl. Data is collected every second for 60 pictures and then every 6 seconds for 20 pictures prior to the addition of agonist. For hM3 and hM5, before agonist addition, a second baseline reading is taken for 10 seconds followed by the addition of 12.5 μl of agonist or buffer, producing a final volume of 50 μl. After agonist stimulation, the FLIPR continues to collect data every second for 60 pictures and then every 6 seconds for 20 pictures. The fluorescence emission is read using filter 1 (emission 510-570 nm) by the FLIPR on board CCD camera.
(§5) Calcium mobilization output data are calculated as the maximal relative fluorescence unit (RFU) minus the minimal value for both compound and agonist reading frame (except for hM1 and rM1 using only the maximal RFU). Data are analyzed using sigmoidal fits of a non-linear curve-fitting program (XLfit version 4.2.2 Excel add-in version 4.2.2 build 18 math 1Q version 2.1.2 build 18). All pEC50 and plC50 values are reported as arithmetic means ±standard error of mean of ‘n’ independent experiments.

In test [2] the target is T2, hM3 (human Muscarinic receptor subtype 3) (Homo sapiens, UniProt P20309).
T2 construct: expressed in transfected cells; host or cells: CHO cells (Chinese hamster ovary cells, ATCC)
In words: Human M3 calcium mobilization FLIPR assay. The class given is cell-based. The note with it: hM3 expressed in CHO cells, intracellular Ca2+ release. As to the method:
as §1, §2, §3, §4, §5
Background: A change in cytosolic calcium serves as a functional read-out for many receptors and channels.

In general, EC50 refers to the concentration needed to bring the measured effect to its halfway point.

Read-outs that look alike come from different tables or passages of the source.

T2 sequence (P20309 whole entry): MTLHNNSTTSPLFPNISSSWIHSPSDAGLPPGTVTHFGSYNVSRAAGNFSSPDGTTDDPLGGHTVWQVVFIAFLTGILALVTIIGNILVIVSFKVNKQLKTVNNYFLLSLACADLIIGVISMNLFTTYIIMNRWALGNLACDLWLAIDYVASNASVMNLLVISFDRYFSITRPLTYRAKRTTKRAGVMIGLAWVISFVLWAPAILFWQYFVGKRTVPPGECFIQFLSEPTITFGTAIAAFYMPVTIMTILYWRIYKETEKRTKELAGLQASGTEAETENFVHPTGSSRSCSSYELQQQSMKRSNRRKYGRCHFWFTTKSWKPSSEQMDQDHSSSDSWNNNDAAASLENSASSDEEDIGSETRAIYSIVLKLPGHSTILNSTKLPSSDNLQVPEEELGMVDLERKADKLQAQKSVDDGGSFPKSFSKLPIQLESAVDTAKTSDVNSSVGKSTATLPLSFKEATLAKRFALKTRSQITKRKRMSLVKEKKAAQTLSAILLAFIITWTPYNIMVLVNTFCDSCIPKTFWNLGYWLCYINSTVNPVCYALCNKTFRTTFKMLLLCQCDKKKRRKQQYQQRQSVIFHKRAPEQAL

In the case of `CCOC(=O)N1CCC(C)(N2CCC(n3c(=O)[nH]c4cc(F)c(F)cc43)CC2)C1` (single isomer, unassigned) [Example 57, ethyl 3-(4-(5,6-difluoro-2-oxo-2,3-dihydro-1H-benzo[d]imidazol-1-yl)piperidin-1-yl)-3-methylpyrrolidine-1-carboxylate], the EC50 turned out to be 356 nM in test [1] (read-out: hM5 EC50) and 3550 nM in test [2] (read-out: hM3 EC50).
Consider `CCOC(=O)N1CCC(C)(N2CCC(n3c(=O)[nH]c4ccccc43)CC2)C1` (centres unmarked) [Example 1, ethyl 3-methyl-3-(4-(2-oxo-2,3-dihydro-1H-benzo[d]imidazol-1-yl)piperidin-1-yl)pyrrolidine-1-carboxylate], for which the half-maximal effective concentration (EC50) in test [1] (read-out: hM5 EC50) came out at 136 nM; in test [2] (read-out: hM3 EC50), 1400 nM.
The matching figures for `CCOC(=O)N1CCC(C)(N2CCC(n3c(=O)[nH]c4cc(F)ccc43)CC2)C1` (single isomer, unassigned) [Example 7, ethyl 3-(4-(5-fluoro-2-oxo-2,3-dihydro-1H-benzo[d]imidazol-1-yl)piperidin-1-yl)-3-methylpyrrolidine-1-carboxylate]: 3100 nM and greater than 40000 nM.
On to `CC#CCOC(=O)N1CCC(C)(N2CCC(n3c(=O)[nH]c4ccc(C)cc43)CC2)C1` (single isomer, unassigned) [Example 20, but-2-ynyl 3-methyl-3-(4-(6-methyl-2-oxo-2,3-dihydro-1H-benzo[d]imidazol-1-yl)piperidin-1-yl)pyrrolidine-1-carboxylate], for which the values for the half-maximal effective concentration (EC50) in test [1] (read-out: hM5 EC50) and in test [2] (read-out: hM3 EC50) were 720 nM and 535 nM, respectively.
For the compound `CCOC(=O)N1CCC(C)(N2CCC(N3C(=O)Cc4ccccc43)CC2)C1` (single isomer, unassigned) [Example 72, ethyl 3-methyl-3-(4-(2-oxoindolin-1-yl)piperidin-1-yl)pyrrolidine-1-carboxylate], the EC50 in test [1] (read-out: hM5 EC50) and in test [2] (read-out: hM3 EC50) was greater than 40000 nM each time.
Consider `CCOC(=O)N1CCC(C)(N2CCC(N3C(=O)Cc4ccccc43)CC2)C1` (single isomer, unassigned) [Example 73, ethyl 3-methyl-3-(4-(2-oxoindolin-1-yl)piperidin-1-yl)pyrrolidine-1-carboxylate], for which the concentration for a half-maximal effect (EC50) in test [1] (read-out: hM5 EC50) and in test [2] (read-out: hM3 EC50) was greater than 40000 nM each time.
As to `COC(=O)N1CCC(C)(N2CCC(N3C(=O)Cc4cc(F)c(C)cc43)CC2)C1` (single isomer, unassigned) [Example 83, methyl 3-(4-(5-fluoro-6-methyl-2-oxoindolin-1-yl)piperidin-1-yl)-3-methylpyrrolidine-1-carboxylate], the EC50 in test [1] (hM5 EC50 (nM)) was 3560 nM; in test [2] (hM3 EC50 (nM)) it was greater than 18400 nM.
Consider `CCOC(=O)N1CCC(C)(N2CCC(n3c(=O)[nH]c4ccc(F)cc43)CC2)C1` (single isomer, unassigned) [Example 49, ethyl 3-(4-(6-fluoro-2-oxo-2,3-dihydro-1H-benzo[d]imidazol-1-yl)piperidin-1-yl)-3-methylpyrrolidine-1-carboxylate], for which the EC50 was greater than 6210 nM in test [1] (read-out: hM5 EC50) and greater than 40000 nM in test [2] (read-out: hM3 EC50).
The matching figures for `CC1(N2CCC(n3c(=O)[nH]c4ccccc43)CC2)CCN(C(=O)OCCF)C1` (racemic) [Example 4, 2-fluoroethyl 3-methyl-3-(4-(2-oxo-2,3-dihydro-1H-benzo[d]imidazol-1-yl)piperidin-1-yl)pyrrolidine-1-carboxylate]: greater than 9600 nM and greater than 40000 nM.
As for `CCOC(=O)N1CCC(C)(N2CCC(N3C(=O)Cc4cc(F)c(C)cc43)CC2)C1` (single isomer, unassigned) [Example 81, ethyl 3-(4-(5-fluoro-6-methyl-2-oxoindolin-1-yl)piperidin-1-yl)-3-methylpyrrolidine-1-carboxylate], the EC50 in test [1] (read-out: hM5 EC50) is 1240 nM; in test [2] (read-out: hM3 EC50), greater than 13300 nM.
Regarding `COC(=O)N1CCC(C)(N2CCC(n3c(=O)[nH]c4ccc(C)cc43)CC2)C1` (single isomer, unassigned) [Example 45, methyl 3-methyl-3-(4-(6-methyl-2-oxo-2,3-dihydro-1H-benzo[d]imidazol-1-yl)piperidin-1-yl)pyrrolidine-1-carboxylate], the EC50 was 1080 nM in test [1] (read-out: hM5 EC50) and greater than 40000 nM in test [2] (read-out: hM3 EC50).
On to `CCOC(=O)N1CCC(C)(N2CCC(n3c(=O)[nH]c4ccc(F)cc43)CC2)C1` (single isomer, unassigned) [Example 50, ethyl 3-(4-(6-fluoro-2-oxo-2,3-dihydro-1H-benzo[d]imidazol-1-yl)piperidin-1-yl)-3-methylpyrrolidine-1-carboxylate], for which the concentration giving a half-maximal response (EC50) in test [1] (read-out: hM5 EC50) is 3560 nM; in test [2] (read-out: hM3 EC50) it was greater than 40000 nM.
As for `CCOC(=O)N1CCC(C)(N2CCC(n3c(=O)[nH]c4cc(F)c(C)cc43)CC2)C1` (single isomer, unassigned) [Example 56, ethyl 3-(4-(5-fluoro-6-methyl-2-oxo-2,3-dihydro-1H-benzo[d]imidazol-1-yl)piperidin-1-yl)-3-methylpyrrolidine-1-carboxylate], the half-maximal effective concentration (EC50) is 1280 nM in test [1] (read-out: hM5 EC50) and greater than 3540 nM in test [2] (read-out: hM3 EC50).
The matching figures for `CC1(N2CCC(n3c(=O)[nH]c4ccc(F)cc43)CC2)CCN(C(=O)OCCF)C1` (single isomer, unassigned) [Example 53, 2-fluoroethyl 3-(4-(6-fluoro-2-oxo-2,3-dihydro-1H-benzo[d]imidazol-1-yl)piperidin-1-yl)-3-methylpyrrolidine-1-carboxylate]: greater than 6160 nM and greater than 40000 nM.
Consider `CCOC(=O)N1CCC(C)(N2CCC(n3c(=O)[nH]c4cc(F)c(F)cc43)CC2)C1` (single isomer, unassigned) [Example 58, ethyl 3-(4-(5,6-difluoro-2-oxo-2,3-dihydro-1H-benzo[d]imidazol-1-yl)piperidin-1-yl)-3-methylpyrrolidine-1-carboxylate], for which the values for the EC50 in test [1] (read-out: hM5 EC50) and in test [2] (read-out: hM3 EC50) were 2210 nM and greater than 40000 nM, respectively.
On to `COC(=O)N1CCC(C)(N2CCC(n3c(=O)[nH]c4cc(C)ccc43)CC2)C1` (single isomer, unassigned) [Example 48, methyl 3-methyl-3-(4-(5-methyl-2-oxo-2,3-dihydro-1H-benzo[d]imidazol-1-yl)piperidin-1-yl)pyrrolidine-1-carboxylate], for which the EC50 in test [1] (read-out: hM5 EC50) and in test [2] (read-out: hM3 EC50) was greater than 40000 nM in each case.
Take `COC(=O)N1CCC(C)(N2CCC(N3C(=O)Cc4ccc(C)cc43)CC2)C1` (single isomer, unassigned) [Example 68, methyl 3-methyl-3-(4-(6-methyl-2-oxoindolin-1-yl)piperidin-1-yl)pyrrolidine-1-carboxylate]: the EC50 is greater than 4080 nM in test [1] (read-out: hM5 EC50) and 2330 nM in test [2] (read-out: hM3 EC50).
Take `CCOC(=O)N1CCC(C)(N2CCC(N3C(=O)Cc4ccc(C)cc43)CC2)C1` (single isomer, unassigned) [Example 69, ethyl 3-methyl-3-(4-(6-methyl-2-oxoindolin-1-yl)piperidin-1-yl)pyrrolidine-1-carboxylate]: the EC50 in test [1] (read-out: hM5 EC50) is 1370 nM; in test [2] (read-out: hM3 EC50), greater than 40000 nM.
With `CC1(N2CCC(n3c(=O)[nH]c4cc(F)ccc43)CC2)CCN(C(=O)OCCF)C1` (centres unmarked) [Example 10, 2-fluoroethyl 3-(4-(5-fluoro-2-oxo-2,3-dihydro-1H-benzo[d]imidazol-1-yl)piperidin-1-yl)-3-methylpyrrolidine-1-carboxylate], the EC50 in test [1] (read-out: hM5 EC50) is 537 nM; in test [2] (read-out: hM3 EC50) it was greater than 40000 nM.
